In data set [1] the target is T1, LRRK2 WT (Homo sapiens (Human), UniProt Q5S007). Put plainly: LRRK2 wild-type ADP-Glo kinase assay. The data set is classed as biochemical. Conditions: read-out: LRRK2 WT ADPGlo IC50. The method, then:
LRRK2 kinase activity was measured using an ADP-Glo kinase assay from Promega Corporation. The assay is a homogeneous luminescence-based assay that measures ADP formed from a kinase reaction. The ADP is converted into ATP, which is used to generate light in a luciferase reaction. The luminescence generated correlates with kinase activity.
The LRRK2 kinase was obtained from Invitrogen (Life Technologies Corporation) and comprises residue 970 to 2527 of the full length human wild-type LRRK2 kinase. The kinase reactions were performed in a 10 μL volume in 384-well plates. The kinase reaction buffer consisted of 50 mM Tris pH 8.5, 0.01% BRIJ-35, 10 mM MgCl2, 1 mM EGTA, and 2 mM DTT.
The reaction mixture (10 μl total volume) was incubated for 3 hours at room temperature (RT, ca. 25° C.), before the reaction was terminated by addition of 10 μl ADP-Glo reagent. The mixture was further incubated for 60 minutes at RT before addition of 20 μl Kinase detection reagent from the ADP-Glo assay kit. Luminescence signal was measure on a BMG Labtech Pherastar FSX multimode microplate reader. The signal integration time was 0.5 s.
Test compound potency (Ki,app) was estimated by nonlinear regression using the tight-binding fit model in GeneData Screener (GeneData AG). In cases where the Ki,app could not be determined, the % inhibition at the highest tested concentration is reported. The tight-binding fit model is given by euquation (2). […] Ki,app is the apparent dissociation constant of the inhibitor. The IC50 can be calculated as given by equation (3). Equation (3): IC50=Ki,app+[E]/2 (3) IC50 estimates were obtained from independent experiment and the logarithmic average was calculated.
Background: ADP-Glo first removes unused ATP, then detects ADP through luciferase.

Data set [2] addresses LRRK2 G2019S (Homo sapiens (Human), UniProt Q5S007, G2019S). Kind of data set: LRRK2 G2019S LanthaScreen TR-FRET kinase activity assay. Type of data set: biochemical. Conditions: 250 pM kinase, 1.3 mM ATP, n≥2 tests. How it is done:
(§1) LRRK2 kinase activity was measured using a LanthaScreen kinase activity assay available from Invitrogen (Life Technologies Corporation). […] The phosphorylated peptide is recognized by a terbium-labelled phospho-specific anti-LRRKtide antibody (pLRRKtide antibody), obtainable from Life Technologies Corporation) and, subsequently, the phosphorylated LRRKtide can be quantified by the extent of TR-FRET between the terbium donor and fluorescein acceptor.
(§2) As discussed above, this mutation increases the kinase activity relative to the wild type. The kinase reactions were performed in a 20 μL volume in 384-well plates. The kinase reaction buffer consisted of 50 mM Tris pH 8.5, 0.01% BRIJ-35, 10 mM MgCl2, 1 mM EGTA, and 2 mM DTT.
(§3) The mixture was further incubated for 30 minutes at RT. TR-FRET was measured by excitation of the terbium-donor with 340 nm light and subsequent (delay time […]) measurement of terbium and fluorescein emission at 495 nm and 520 nm, respectively, over a time window of […]. The measurement was repeated 30 times for fluorescein and 30 times for terbium emission with a […] between repeats. TR-FRET measurements were performed on a Biotek Synergy plate. The TR-FRET signal was calculated as the emission-ratio at 520 nm over 495 nm.
(§4) Test compound potency (IC50) was estimated by nonlinear regression using the sigmoidal dose-response (variable slope) using Xlfit 4 (IDBS, Guildford, Surrey, UK, model 205). Were the IC50 could not be determined the % inhibition at the highest tested concentration is given by equation 1. Equation (1): y=(A+((B−A)/(1+((C/x)^D)))) (1)
(§5) where y is the normalized TR-TRET ratio measurement for a given concentration of test compound, x is the concentration of test compound, A is the estimated efficacy (% inhibition) at infinite compound dilution, and B is the maximal efficacy (% inhibition). C is the IC50 value and D is the Hill slope coefficient. IC50 estimates were obtained from independent experiment and the logarithmic average was calculated.
For orientation: In TR-FRET formats the signal depends on donor and acceptor labels being close together.

Data set [3] can be described thus: Hepatic microsomal intrinsic clearance assay. The data set is classed as in vitro ADME. Conditions: pooled liver microsomes, pH 7.4; liver microsomes 0.5 mg/mL; 1 μM; NADPH; 1 hour at 37° C.; LLOQ 0.36 L/h/kg. Summed up:
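Compounds at 1 μM final were incubated with pooled liver microsomes (0.5 mg/mL) in phosphate buffer pH 7.4 at 37 °C for up to 60 min. Samples taken at 0, 5, 10, 20, 30 and 60 min were quenched with acetonitrile and analysed by LC-MS/MS.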

Data set [4] addresses T1, LRRK2 WT. Kind of data set: LRRK2 wild-type LanthaScreen TR-FRET kinase activity assay. The data set is classed as biochemical. The settings on record: 1 nM kinase, 1.3 mM ATP, n≥2 tests. The method, then: as §1, §2, §3, §4, §5
Data set [5] in a line: Hepatocyte intrinsic clearance assay. The data set is classed as in vitro ADME, Human. The settings on record: pooled donor, cryopreserved hepatocytes, pH 7.4; human hepatocytes 1×10^6/mL; 0.05 μM; 2 h at 37° C. How it is done: Test compounds (final concentration 0.05 μM, 0.05% organic) were incubated for 2 h at 37° C., with shaking, in supplemented Leibovitz L-15 media (pH 7.4) containing commercially sourced, pooled donor, cryopreserved hepatocytes (final concentration 1×10^6 hepatocytes/mL). The CLint reactions (350 μL) were initiated by addition of test compound. Aliquots (25 μL) were taken at 1, 5, 10, 15, 30, 60, 90 and 120 minutes and then protein crashed with ice-cold acetonitrile containing internal standard (150 μL) then centrifuged (1960 g for 20 minutes at 4° C.). Supernatant was diluted (1:4) with deionized water then analyzed by liquid chromatography (LC)-tandem mass spectrometry (MS/MS).

One molecule from US11958865B1, “Leucine-rich repeat kinase 2 (LRRK2) inhibitors” (H. Lundbeck A/S, priority 2022, dated 2024) can be followed below.

T1 sequence (Q5S007 970-2527): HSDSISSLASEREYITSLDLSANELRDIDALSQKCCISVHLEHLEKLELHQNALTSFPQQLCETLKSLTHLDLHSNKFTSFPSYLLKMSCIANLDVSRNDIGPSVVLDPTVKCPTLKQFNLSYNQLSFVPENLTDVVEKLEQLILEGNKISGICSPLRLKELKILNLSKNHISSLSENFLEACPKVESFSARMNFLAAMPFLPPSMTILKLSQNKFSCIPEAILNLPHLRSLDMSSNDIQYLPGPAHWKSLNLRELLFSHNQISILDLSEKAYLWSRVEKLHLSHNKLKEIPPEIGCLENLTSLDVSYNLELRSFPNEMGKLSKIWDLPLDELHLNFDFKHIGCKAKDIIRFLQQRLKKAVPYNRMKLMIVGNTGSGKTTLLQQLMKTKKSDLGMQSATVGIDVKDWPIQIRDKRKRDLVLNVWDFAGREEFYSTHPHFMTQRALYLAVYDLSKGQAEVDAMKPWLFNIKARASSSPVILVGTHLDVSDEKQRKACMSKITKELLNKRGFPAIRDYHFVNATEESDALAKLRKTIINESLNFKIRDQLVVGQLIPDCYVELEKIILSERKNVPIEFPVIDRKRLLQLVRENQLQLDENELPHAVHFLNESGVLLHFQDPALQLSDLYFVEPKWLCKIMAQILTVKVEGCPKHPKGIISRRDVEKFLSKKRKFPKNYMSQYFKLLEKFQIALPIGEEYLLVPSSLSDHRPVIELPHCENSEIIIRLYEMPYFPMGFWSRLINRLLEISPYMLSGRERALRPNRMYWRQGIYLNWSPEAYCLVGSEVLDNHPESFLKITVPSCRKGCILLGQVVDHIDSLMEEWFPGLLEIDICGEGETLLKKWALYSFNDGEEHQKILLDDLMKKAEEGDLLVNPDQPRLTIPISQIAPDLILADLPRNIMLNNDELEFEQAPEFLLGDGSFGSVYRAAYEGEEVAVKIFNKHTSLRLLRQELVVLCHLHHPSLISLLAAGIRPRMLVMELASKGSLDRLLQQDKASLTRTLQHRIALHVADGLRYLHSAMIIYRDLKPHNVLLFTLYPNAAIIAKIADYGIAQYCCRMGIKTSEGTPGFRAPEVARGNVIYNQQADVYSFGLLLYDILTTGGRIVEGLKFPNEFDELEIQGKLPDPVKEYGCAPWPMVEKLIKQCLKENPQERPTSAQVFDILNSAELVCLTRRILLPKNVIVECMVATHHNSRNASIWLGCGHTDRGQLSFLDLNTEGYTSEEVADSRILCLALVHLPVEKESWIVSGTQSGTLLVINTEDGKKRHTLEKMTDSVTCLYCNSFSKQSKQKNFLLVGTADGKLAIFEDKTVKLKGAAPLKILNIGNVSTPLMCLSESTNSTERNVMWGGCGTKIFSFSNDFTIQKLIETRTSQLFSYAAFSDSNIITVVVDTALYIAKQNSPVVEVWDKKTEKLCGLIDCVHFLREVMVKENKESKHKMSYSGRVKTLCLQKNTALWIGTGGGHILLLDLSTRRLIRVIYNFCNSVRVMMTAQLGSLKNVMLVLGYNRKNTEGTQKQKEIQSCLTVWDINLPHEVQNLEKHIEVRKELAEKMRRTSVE
Chain of LRRK2 G2019S (Q5S007 970-2527 G2019S): as the sequence (Q5S007 970-2527) above, with G1050S counted along it

One may read the IC50 as the concentration that inhibits the measured activity by half. Usually CLint scaled stands for a measure of how fast metabolising enzymes remove a compound, apart from limits set by blood flow. A low value points to greater metabolic stability. Take `[2H]C([2H])([2H])Oc1ncccc1-n1nc2c(c1C)Nc1ncc3c(Cl)nn(c3n1)CCCO2` [Example 24, 8-Chloro-2-(2-(methoxy-d3)pyridin-3-yl)-3-methyl-2,4,12,13-tetrahydro-11H-5,7-(azenometheno)dipyrazolo[3,4-b:5′,1′-g][1]oxa[4,6,8]triazacycloundecine]: the IC50 in data set [1] was 0.49 nM; in data set [2], 0.35 nM; in data set [4], 0.95 nM. Besides, in data set [3], the CLint scaled at 1 μM is 12.5 mL/min/kg. The same molecule showed a CLint scaled at 0.05 μM in data set [5] of 17.7 mL/min/kg.
